In patent US10759785B2, “Compounds” (ENTERPRISE THERAPEUTICS LIMITED, priority 2016, dated 2020):
Counter-ions that a name gives are not always drawn.

Experiment: Hepatic stability (rat cryopreserved hepatocytes)
Type: in vitro ADME
Details: pH 7.4, 1 μM test compound, 1×10^6 cells/mL, 37° C., read-out: Averages. Hep Half Life Rat
Method: Example 29—Hepatic Stability
Cryopreserved hepatocytes (rat and human) were obtained from Bioreclamation. Test compound stock solutions in DMSO (10 mM) were diluted with DMSO to 4 mM. Further dilution was completed to achieve a 100 μM stock (5 μL of 4 mM in 195 μL of 50:50 DMSO:hepatocyte buffer). Final test compound concentration in incubation was 1 μM. The following probe substrates were used: testosterone and carbamazepine at a final incubation concentration of 1 μM. Hepatocyte buffer was prepared (Williams E media containing phenol red and Glutamax™, 15 mM HEPES, warmed to 37° C., pH7.4 with NaOH). Cells were removed from liquid nitrogen, thawed in a waterbath, decanted into 50 mL of pre-warmed Cryopreserved Hepatocyte Recovery Media (LifeTechnologies) and centrifuged. Supernatant fraction was removed, cells were re-suspended in hepatocyte buffer and counted by trypan blue exclusion. Cell viability of >80% was required for all assays. Cells were re-suspended to 1×10^6/mL and 198 μL cell suspension added to each 96-well. 2 μL of 100 μM compound stock solution was added to relevant wells to initiate the incubation. A no cell control and two replicates of each test compound was included in every assay. Cells were incubated at 37° C., on a shaker set at 300 rpm. At each timepoint (0, 15, 30, 45, 60, 90 min) 20 μL of sample was removed from the 96-well and added to 80 μL of quench solution (acetonitrile containing 0.1% formic acid and imipramine/labetalol, 200 nM). Samples were diluted 1:1 with water using the Janus Robot and analysed by LC-MS/MS.

CCn1c(CNC(=O)c2nc(Br)cnc2N)[n+](C)c2ccc(C(F)(F)F)cc21.[I-] [Example 13, 2-{[(3-amino-6-bromopyrazin-2-yl)formamido]methyl}-1-ethyl-3-methyl-6-(trifluoromethyl)-1H-1,3-benzodiazol-3-ium iodide]
half-life at 1 μM: 14 min

CCn1c(CNC(=O)c2nc(Br)cnc2N)[n+](CCOCCOCCO)c2ccc(OC)cc21.O=C[O-] [Example 4, 2-{[(3-amino-6-bromopyrazin-2-yl)formamido]methyl}-1-ethyl-3-{2-[2-(2-hydroxyethoxy)ethoxy]ethyl}-6-methoxy-1H-1,3-benzodiazol-3-ium formate]
half-life at 1 μM: 16 min

CCn1c(CNC(=O)c2nc(Br)cnc2N)[n+](CC)c2ccc(OCCNC(=O)OC(C)(C)C)cc21.O=C[O-] [Example 24, 2-{[(3-amino-6-bromopyrazin-2-yl)formamido]methyl}-6-(2-{[(tert-butoxy)carbonyl]amino}ethoxy)-1,3-diethyl-1H-1,3-benzodiazol-3-ium formate]
half-life at 1 μM: 42 min

CCn1c(CNC(=O)c2nc(Br)cnc2N)[n+](CC)c2ccc(C(=O)OC)cc21.[I-] [Example 15, 2-{[(3-amino-6-bromopyrazin-2-yl)formamido]methyl}-1,3-diethyl-6-(methoxycarbonyl)-1H-1,3-benzodiazol-3-ium iodide]
half-life at 1 μM: 14 min

CCn1c(CNC(=O)c2nc(Br)cnc2N)[n+](CC)c2ccc(-c3cnn(C4CCNCC4)c3)cc21.Cl.[I-] [Example 21, 2-{[(3-amino-6-bromopyrazin-2-yl)formamido]methyl}-1,3-diethyl-6-[1-(piperidin-4-yl)-1H-pyrazol-4-yl]-1H-1,3-benzodiazol-3-ium hydrochloride iodide]
half-life at 1 μM: 25 min

CCn1c(CNC(=O)c2nc(Br)cnc2N)[n+](CC)c2ccc(OCCN)cc21.Cl.[Cl-] [Example 25, 2-{[(3-Amino-6-bromopyrazin-2-yl)formamido]methyl}-6-(2-aminoethoxy)-1,3-diethyl-1H-1,3-benzodiazol-3-ium hydrochloride chloride]
half-life at 1 μM: 59 min

CCn1c(CNC(=O)c2nc(C#N)cnc2N)[n+](CC)c2ccc(OC)cc21 [Example 26, 2-{[(3-amino-6-cyanopyrazin-2-yl)formamido]methyl}-1,3-diethyl-6-methoxy-1H-1,3-benzodiazol-3-ium formate]
half-life at 1 μM: 23 min

CCn1c(CNC(=O)c2nc(Br)cnc2N)[n+](CC)c2ccc(C(=O)N[C@@H]3CCOC3=O)cc21 [Example 17, 2-{[(3-amino-6-bromopyrazin-2-yl)formamido]methyl}-1,3-diethyl-6-{[(3R)-2-oxooxolan-3-yl]carbamoyl}-1H-1,3-benzodiazol-3-ium formate]
half-life at 1 μM: 32 min

CCn1c(CNC(=O)c2nc(Br)cnc2N)[n+](C)c2ccc(Cl)cc21.O=CO.O=C[O-] [Example 11, 2-{[(3-amino-6-bromopyrazin-2-yl)formamido]methyl}-6-chloro-1-ethyl-3-methyl-1H-1,3-benzodiazol-3-ium formic acid formate]
half-life at 1 μM: 6 min

CCn1c(CNC(=O)c2nc(Br)cnc2N)[n+](CC)c2ccc(OC)cc21.O=C[O-] [Example 2, 2-{[(3-amino-6-bromopyrazin-2-yl)formamido]methyl}-1,3-diethyl-6-methoxy-1H-1,3-benzodiazol-3-ium formate]
half-life at 1 μM: 5 min

CCn1c(CNC(=O)c2nc(Br)cnc2N)[n+](C)c2ccc(OC(F)(F)F)cc21.O=C[O-] [Example 14, 2-{[(3-amino-6-bromopyrazin-2-yl)formamido]methyl}-1-ethyl-3-methyl-6-(trifluoromethoxy)-1H-1,3-benzodiazol-3-ium formate]
half-life at 1 μM: 28 min

CCn1c(CNC(=O)c2nc(Br)cnc2N)[n+](CC)c2ccc(-c3cnn(C4CCN(C[C@H](O)[C@@H](O)[C@H](O)[C@H](O)CO)CC4)c3)cc21.O=CO.[Cl-] [Example 23, 2-{[(3-amino-6-bromopyrazin-2-yl)formamido]methyl}-1,3-diethyl-6-(1-{1-[(2S,3R,4R,5R)-2,3,4,5,6-pentahydroxyhexyl]piperidin-4-yl}-1H-pyrazol-4-yl)-1H-1,3-benzodiazol-3-ium formic acid chloride]
half-life at 1 μM: 124 min

CCn1c(CNC(=O)c2nc(Br)cnc2N)[n+](Cc2ccccc2)c2ccc(C(F)(F)F)cc21.O=C[O-] [Example 19, 2-{[(3-Amino-6-bromopyrazin-2-yl)formamido]methyl}-3-benzyl-1-ethyl-6-(trifluoromethyl)-1H-1,3-benzodiazol-3-ium formate]
half-life at 1 μM: 17 min

CCn1c(CNC(=O)c2nc(Br)cnc2N)[n+](CC)c2ccc(C(=O)N[C@H]3CCOC3=O)cc21 [Example 18, 2-{[(3-amino-6-bromopyrazin-2-yl)formamido]methyl}-1,3-diethyl-6-{[(3S)-2-oxooxolan-3-yl]carbamoyl}-1H-1,3-benzodiazol-3-ium formate]
half-life at 1 μM: 46 min

CCn1c(CNC(=O)c2nc(Br)cnc2N)[n+](CC)c2ccc(-c3cnn(C4CCN(C(=N)N)CC4)c3)cc21.O=CO.O=C[O-] [Example 22, 2-{[(3-amino-6-bromopyrazin-2-yl)formamido]methyl}-6-[1-(1-carbamimidoylpiperidin-4-yl)-1H-pyrazol-4-yl]-1,3-diethyl-1H-1,3-benzodiazol-3-ium formic acid formate]
half-life at 1 μM: 90 min

CCn1c(CNC(=O)c2nc(Br)cnc2N)[n+](CCO)c2ccc(OC)cc21.O=C[O-] [Example 3, 2-{[(3-amino-6-bromopyrazin-2-yl)formamido]methyl}-1-ethyl-3-(2-hydroxyethyl)-6-methoxy-1H-1,3-benzodiazol-3-ium formate]
half-life at 1 μM: 13 min

CCn1c(CNC(=O)c2nc(Cl)cnc2N)[n+](C)c2ccc(OC)cc21.[I-] [Example 5, 2-{[(3-amino-6-chloropyrazin-2-yl)formamido]methyl}-1-ethyl-6-methoxy-3-methyl-1H-1,3-benzodiazol-3-ium iodide]
half-life at 1 μM: 5 min

CCn1c(CNC(=O)c2nc(C)cnc2N)[n+](C)c2ccc(OC)cc21.[I-] [Example 7, 2-{[(3-amino-6-methylpyrazin-2-yl)formamido]methyl}-1-ethyl-6-methoxy-3-methyl-1H-1,3-benzodiazol-3-ium iodide]
half-life at 1 μM: 16 min

CCn1c(CNC(=O)c2nc(Br)cnc2N)[n+](CC)c2ccc(-c3cnn(C4CCN(C(=O)OC(C)(C)C)CC4)c3)cc21.[I-] [Example 20, 2-{[(3-amino-6-bromopyrazin-2-yl)formamido]methyl}-6-(1-{1-[(tert-butoxy)carbonyl]piperidin-4-yl}-1H-pyrazol-4-yl)-1,3-diethyl-1H-1,3-benzodiazol-3-ium iodide]
half-life at 1 μM: 20 min
